In assay [1] the target is rat NR1/NR2B receptor (Rattus norvegicus (Rat), UniProt P35439+Q00960). As to the kind of experiment: NR2B binding assay: inhibition of specific [3H]-Ifenprodil binding to the rat NR1/NR2B receptor. The note with it: [3H]-Ifenprodil binding, rat brain membranes; for inhibition at 1 µM: 1 μM test compound, read-out: % INH @ 1 μM; for inhibition at 10 µM: 10 μM test compound, read-out: % INH @ 10 μM. On the procedure: Biological Assays Inhibition of Specific Binding to the Rat NR1/NR2B Receptor
Male Wistar rats (180 to 200 g) were killed by suffocation in a CO2 chamber for two minutes. Whole brains without cerebellum were removed and dissected on ice, placed into closed vials and stored at −70° C.
Membrane fractions were prepared and tested using standard techniques. At the time of the assay, 1 g of the brains was placed into 25 ml of 50 mM Tris/10 mM EDTA buffer, pH 7.1, (25 vol. per g of original tissue) and homogenized for 30 sec at 20000 rpm with an Ultraturrax T25 (Jahnke & Kunkel, IKA-Labortechnik, Staufen, Germany).
The supernatant was discarded and the pellet was homogenized on ice for 30 sec at 20000 rpm with an Ultraturrax and again centrifuged at 48000 g for 30 minutes at 4° C. The resultant pellet was resuspended in 25 ml of 50 mM Tris/10 mM EDTA buffer, homogenized for 30 sec with an Ultraturrax, aliquoted, frozen at −70° C. and stored until use.
After thawing on the day of the assay, a 5 ml membrane aliquot was centrifuged at 48000 g for 30 min at 4° C. The pellet was resuspended in 5 ml of 5 mM Tris/1 mM EDTA buffer, pH 7.4, homogenized for 30 sec at 20000 rpm with an Ultraturrax and centrifuged at 48000 g for 30 min at 4° C. This was repeated twice. The final pellet was homogenized in 5 ml of 5 mM Tris/1 mM EDTA buffer at 4° C. with an Ultraturrax and used for the Ifenprodil-binding assay as described in the following.
Nonspecific binding was estimated in the presence of […] CP101.606. The samples were incubated for 60 min. at 4° C.
The incubation was terminated by filtration of the membrane preparations using Filtermat B (Pharmacia, Uppsala Sweden) and a Micro Cell Harvester (Skatron, Lier, Norway). The Filtermat B had been presoaked with 1% polyethylene imine and carefully washed with 50 mM Tris/HCl-buffer pH 7.7 after the filtration to separate free and bound radioactivity.
The optimal amount of membrane preparation in the assay was determined and optimized for each membrane preparation separately before the test.
For pipetting of the incubation mixture the robot Biomek2000 (Fa. Beckman) was used.
For determination of IC50 values the Hill-plot, 2-parameter-model was used.

In assay [2] the target is hERG receptor (Homo sapiens (Human), UniProt Q12809). Put plainly: HERGBD: inhibition of specific [3H]-Dofetilide binding to the hERG receptor. On the procedure: Inhibition of Specific Binding to the hERG—Receptor (HERGBD)
A HEK cell line with stable transfected human ERG receptor was used for the assay. The cells were grown adherently and maintained in DULBECCOS' MEM medium with 10% FBS, 1% non-essential amino acids, 1% Penicillin/Streptomycin and 400 μg/ml G418 (Calbiochem).
For binding assays and membrane preparations the cell culture medium was removed, cells were washed with PBS. Crude membranes for radioligand binding experiments were prepared by scraping the cells off the dishes in ice cold 20 mM HEPES/0.1 mM KCl/pH 7.2. The cell suspension was homogenized on ice (Ultra turrax, 3×20 sec.) and the homogenate was spun for 10 min (1° C., 1000 g, OPTIMA, SW28, 2800 U/min). The supernatant was than centrifuged for 40 min at 100000 g (1° C., OPTIMA, SW28, 23000 U/min). The membrane pellet was re-suspended in 20 mM HEPES/0.1 mM KCl pH 7.2, frozen and stored at −80° C.
After thawing on the day of the assay, the membrane suspension was diluted further with 20 mM HEPES/0.1 mM KCl/pH 7.2.
The incubation mixture of 200 μl contained 1.5 nmol/l 3H-Dofetilide, optimized amount of membrane preparation, 20 mM HEPES/0.1 mM KCl/(pH 7.2) and inhibitor in 1% DMSO. Nonspecific binding was estimated in the presence of […] Dofetilide. The samples were incubated for 90 min. at RT.
Binding was terminated by filtration of the incubated membrane preparations using Filtermat B (Pharmacia, Uppsala Sweden) and a Micro Cell Harvester (Skatron, Lier, Norway). The Filtermat B had been presoaked with 1% polyethylen imine and carefully washed with 0.05 M Tris/HCl-buffer pH=7.7 after the filtration to separate free and bound radioactivity. The filters were counted in a scintillation counter (Betaplate 1205, Berthold, Wildbad, Germany) in order to determine the specific binding of [^3H]-Dofetilide.
The optimal amount of membrane preparation in the assay was determined and optimized for each membrane preparation separately in front of using the membranes in compound testing.
For pipetting of the incubation mixture we routinely use the robot Biomek2000 (Fa. Beckman).

[3] abbreviates: [3H]-Dofetilide binding, membranes of HEK cells with human ERG receptor, read-out: IC50.

Structures can show the parent of a compound that is named as a salt. Where two headings read alike, the source gives them in different places.

As usually defined, the IC50 is the concentration that gives 50% inhibition.

Sequence of rat NR1/NR2B receptor (Q00960 27-1482, other chains not shown): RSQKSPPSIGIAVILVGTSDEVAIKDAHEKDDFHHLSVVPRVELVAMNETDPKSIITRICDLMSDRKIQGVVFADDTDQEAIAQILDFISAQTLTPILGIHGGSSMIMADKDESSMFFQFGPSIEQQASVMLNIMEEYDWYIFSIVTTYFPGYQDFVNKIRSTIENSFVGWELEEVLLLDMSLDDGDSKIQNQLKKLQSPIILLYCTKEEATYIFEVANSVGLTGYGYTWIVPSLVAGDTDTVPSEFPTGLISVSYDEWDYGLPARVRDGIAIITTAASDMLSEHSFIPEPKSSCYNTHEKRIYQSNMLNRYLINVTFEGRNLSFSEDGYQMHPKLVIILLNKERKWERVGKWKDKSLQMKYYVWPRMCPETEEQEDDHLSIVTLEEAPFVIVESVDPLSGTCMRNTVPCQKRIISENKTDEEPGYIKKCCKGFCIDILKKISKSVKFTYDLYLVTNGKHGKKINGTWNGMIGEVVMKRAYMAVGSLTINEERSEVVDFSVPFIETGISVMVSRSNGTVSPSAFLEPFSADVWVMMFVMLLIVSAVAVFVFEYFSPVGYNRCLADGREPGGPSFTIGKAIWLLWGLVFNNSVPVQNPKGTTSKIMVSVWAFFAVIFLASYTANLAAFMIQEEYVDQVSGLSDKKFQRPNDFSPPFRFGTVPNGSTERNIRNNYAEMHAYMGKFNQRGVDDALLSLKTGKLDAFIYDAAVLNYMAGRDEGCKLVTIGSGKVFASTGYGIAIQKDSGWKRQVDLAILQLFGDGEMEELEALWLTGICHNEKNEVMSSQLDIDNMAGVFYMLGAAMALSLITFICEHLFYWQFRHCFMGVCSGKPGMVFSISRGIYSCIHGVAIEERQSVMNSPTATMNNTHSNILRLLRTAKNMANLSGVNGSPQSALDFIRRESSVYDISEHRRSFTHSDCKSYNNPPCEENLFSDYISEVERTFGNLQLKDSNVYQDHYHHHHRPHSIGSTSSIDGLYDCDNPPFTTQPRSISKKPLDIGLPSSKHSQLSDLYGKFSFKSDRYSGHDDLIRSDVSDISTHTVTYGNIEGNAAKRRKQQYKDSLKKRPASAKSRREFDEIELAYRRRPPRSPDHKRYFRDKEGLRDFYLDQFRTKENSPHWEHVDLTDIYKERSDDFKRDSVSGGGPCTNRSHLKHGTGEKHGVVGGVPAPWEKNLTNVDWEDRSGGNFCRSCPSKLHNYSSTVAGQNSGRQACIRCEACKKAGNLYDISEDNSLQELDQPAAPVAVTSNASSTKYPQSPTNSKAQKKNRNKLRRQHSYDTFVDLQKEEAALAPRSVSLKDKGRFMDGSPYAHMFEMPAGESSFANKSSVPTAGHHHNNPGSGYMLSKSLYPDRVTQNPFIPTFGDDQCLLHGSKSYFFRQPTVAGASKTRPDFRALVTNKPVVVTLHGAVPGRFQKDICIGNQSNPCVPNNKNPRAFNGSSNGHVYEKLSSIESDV
Sequence of hERG receptor (Q12809 whole entry): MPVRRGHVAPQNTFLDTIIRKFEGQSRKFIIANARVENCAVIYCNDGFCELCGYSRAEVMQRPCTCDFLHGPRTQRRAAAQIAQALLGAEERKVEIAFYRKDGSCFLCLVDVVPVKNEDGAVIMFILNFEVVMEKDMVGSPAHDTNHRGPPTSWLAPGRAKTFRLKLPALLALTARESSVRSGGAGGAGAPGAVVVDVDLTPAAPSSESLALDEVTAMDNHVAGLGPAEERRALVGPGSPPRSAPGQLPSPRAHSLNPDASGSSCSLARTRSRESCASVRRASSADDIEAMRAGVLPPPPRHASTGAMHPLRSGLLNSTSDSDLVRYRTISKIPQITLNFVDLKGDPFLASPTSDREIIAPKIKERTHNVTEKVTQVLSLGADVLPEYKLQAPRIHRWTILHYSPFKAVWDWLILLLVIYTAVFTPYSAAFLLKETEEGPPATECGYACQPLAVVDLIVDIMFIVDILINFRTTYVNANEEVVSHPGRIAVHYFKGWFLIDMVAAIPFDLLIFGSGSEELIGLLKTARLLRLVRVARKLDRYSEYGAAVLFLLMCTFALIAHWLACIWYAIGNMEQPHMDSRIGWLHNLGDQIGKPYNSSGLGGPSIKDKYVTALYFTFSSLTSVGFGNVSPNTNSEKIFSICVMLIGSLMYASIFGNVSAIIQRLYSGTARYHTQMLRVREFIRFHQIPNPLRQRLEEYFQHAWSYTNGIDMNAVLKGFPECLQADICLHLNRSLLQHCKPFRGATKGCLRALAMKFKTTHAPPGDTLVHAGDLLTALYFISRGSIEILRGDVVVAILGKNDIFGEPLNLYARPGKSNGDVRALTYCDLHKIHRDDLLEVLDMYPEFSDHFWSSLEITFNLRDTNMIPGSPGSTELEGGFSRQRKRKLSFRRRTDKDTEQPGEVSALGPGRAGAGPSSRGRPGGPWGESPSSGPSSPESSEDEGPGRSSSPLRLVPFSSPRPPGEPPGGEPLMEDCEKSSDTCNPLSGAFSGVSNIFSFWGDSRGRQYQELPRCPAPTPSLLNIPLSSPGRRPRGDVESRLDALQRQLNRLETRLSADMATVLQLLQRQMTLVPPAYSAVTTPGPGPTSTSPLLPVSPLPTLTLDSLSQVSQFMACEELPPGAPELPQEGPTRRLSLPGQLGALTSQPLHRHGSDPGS

For the molecule `Cn1cc(Cn2cc(-c3ccc(F)c(OC(F)F)c3)cn2)cn1` [Example 19, 4-[3-(difluoromethoxy)-4-fluoro-phenyl]-1-[(1-methylpyrazol-4-yl)methyl]pyrazole], the IC50 was 202 nM in assay [1] and above 100 µM in assay [2].
As for `FC(F)Oc1cccc(-c2cnn(Cc3cc[nH]n3)c2)c1` [Example 94, 3-[[4-(3-(difluoromethoxy)-phenyl)pyrazol-1-yl]methyl]-1H-pyrazole Maleate], the results for the IC50 in assay [1] and in assay [2] (setting [3]) were 279 nM and 120 µM, respectively.
As to `Cc1cc(Cn2cc(-c3ccc(F)c(Cl)c3)cn2)n(C)n1` [Example 62, 5-[[4-(3-chloro-4-fluoro-phenyl)pyrazol-1-yl]methyl]-1,3-dimethyl-pyrazole], the IC50 in assay [1] came to 857 nM; in assay [2], 41.9 µM.
On the same counts, the results for `CCn1cc(CCn2cc(-c3ccc(Cl)c(OC(F)F)c3)cn2)cn1` [Example 10, 4-[4-Chloro-3-(difluoromethoxy)phenyl]-1-[2-(1-ethylpyrazol-4-yl)ethyl]pyrazole] are 250 nM and 18.4 µM.
The corresponding values for `Cn1cc(Cn2cc(-c3ccc(Cl)cc3)cn2)cn1` [Example 78, 4-(4-Chlorophenyl)-1-[(1-methylpyrazol-4-yl)methyl]pyrazole] are 8280 nM and above 100 µM.
As for `Clc1ccc(-c2cnn(Cc3cn4ccccc4n3)c2)cc1` [Example 102, 2-((4-(4-chlorophenyl)-1H-pyrazol-1-yl)methyl)imidazo[1,2-a]pyridine], the inhibition at 1 µM in assay [1] turned out to be 23.3%. In addition, in assay [2], the IC50 is 10.2 µM.
On to `Cc1cc(Cn2cc(-c3cccc(C(F)(F)F)c3)cn2)n(C)n1` [Example 48, 1,3-dimethyl-5-[[4-[3-(trifluoromethyl)phenyl]pyrazol-1-yl]methyl]pyrazole], for which the values for the IC50 in assay [1] and in assay [2] were 1970 nM and 37.4 µM, respectively.
Take `CCC(CC)n1ccc(Cn2cc(-c3ccc(Cl)c(OC(F)F)c3)cn2)n1` [Example 11, 3-[[4-[4-Chloro-3-(difluoromethoxy)phenyl]pyrazol-1-yl]methyl]-1-(1-ethylpropyl)pyrazole]: the inhibition at 1 µM in assay [1] was 2.7%. Further, the IC50 in assay [2] (setting [3]) turned out to be 12.7 µM.
On to `Fc1ccc(-c2cnn(CCc3cn[nH]c3)c2)cc1C(F)F` [Example 37, 4-[3-(Difluoromethyl)-4-fluoro-phenyl]-1-[2-(1H-pyrazol-4-yl)ethyl]pyrazole], for which the results for the IC50 in assay [1] and in assay [2] were 2060 nM and 38.1 µM, respectively.
The corresponding values for `c1cc(-c2cnn(Cc3cc[nH]n3)c2)cc(C2CC2)c1` [Example 69, 4-(3-cyclopropylphenyl)-1-(1H-pyrazol-3-ylmethyl)pyrazole Succinate] are 831 nM and above 100 µM.
With `Cc1cc(Cn2cc(-c3ccc(Cl)c(C(F)F)c3)cn2)n(C)n1` [Example 25, 5-[[4-[4-Chloro-3-(difluoromethyl)phenyl]pyrazol-1-yl]methyl]-1,3-dimethyl-pyrazole], the IC50 worked out at 980 nM in assay [1] and 49.6 µM in assay [2] (setting [3]).
As to `Cc1cc(-c2cnn(Cc3cc[nH]n3)c2)ccc1F` [Example 56, 4-(4-fluoro-3-methyl-phenyl)-1-(1H-pyrazol-3-ylmethyl)pyrazole], the IC50 in assay [1] was determined as 78.7 nM; in assay [2] it was 93.8 µM.
On the same counts, the results for `Cc1n[nH]c(C)c1Cn1cc(-c2ccc(F)c(C(C)(F)F)c2)cn1` [Example 90] are 422 nM and 84 µM.
The corresponding values for `Cn1ccc(Cn2cc(-c3ccc(Cl)cc3Cl)cn2)n1` [Example 66, 3-[[4-(2,4-dichlorophenyl)pyrazol-1-yl]methyl]-1-methyl-pyrazole Succinate] are 5210 nM and 8.86 µM.
As to `Cc1cc(Cn2cc(-c3ccc(Cl)c(OC(F)F)c3)cn2)n(C)n1` [Example 3, 5-[[4-[4-Chloro-3-(difluoromethoxy)phenyl]pyrazol-1-yl]methyl]-1,3-dimethyl-pyrazole], the concentration for half-maximal inhibition (IC50) was found to be 146 nM in assay [1] and 23.3 µM in assay [2] (setting [3]).
Consider `Cn1ccc(Cn2cc(-c3ccc(Br)cc3)cn2)n1` [Example 79, 3-[[4-(4-bromophenyl)pyrazol-1-yl]methyl]-1-methyl-pyrazole], for which the IC50 in assay [1] was found to be 4720 nM.
For `CS(=O)(=O)c1cccc(-c2cnn(Cc3cc[nH]n3)c2)c1` [Example 70, 4-(3-methylsulfonylphenyl)-1-(1H-pyrazol-3-ylmethyl)pyrazole Succinate], the IC50 in assay [1] was 2690 nM; in assay [2], above 100 µM.
`Cn1ccc(Cn2cc(-c3cc(F)cc(F)c3)cn2)n1` [Example 84, 3-[[4-(3,5-difluorophenyl)pyrazol-1-yl]methyl]-1-methyl-pyrazole]: in assay [1], the inhibition at 1 µM was determined as 14.6% and the inhibition at 10 µM was found to be 45.7%.
As to `Cc1cc(Cn2cc(-c3ccc(F)c(C(F)F)c3)cn2)n(C)n1` [Example 32, 5-[[4-[3-(Difluoromethyl)-4-fluoro-phenyl]pyrazol-1-yl]methyl]-1,3-dimethyl-pyrazole], the results for the IC50 in assay [1] and in assay [2] were 323 nM and 38.6 µM, respectively.
Take `Cc1cc(-c2cnn(Cc3ccn(C)n3)c2)ccc1F` [Example 55, 3-[[4-(4-fluoro-3-methyl-phenyl)pyrazol-1-yl]methyl]-1-methyl-pyrazole Succinate]: the figures for the IC50 in assay [1] and in assay [2] were 871 nM and 21.1 µM, respectively.
Take `Cc1cc(Cn2cc(-c3ccc(F)c(C)c3)cn2)n(C)n1` [Example 54, 5-[[4-(4-fluoro-3-methyl-phenyl)pyrazol-1-yl]methyl]-1,3-dimethyl-pyrazole Succinate]: the IC50 in assay [2] (setting [3]) was above 100 µM.
Molecule `Cn1ccc(Cn2cc(-c3cccc(Br)c3)cn2)n1` [Example 82, 3-[[4-(3-bromophenyl)pyrazol-1-yl]methyl]-1-methyl-pyrazole Succinate] registered a half-inhibitory concentration (IC50) in assay [1] of 2620 nM.
With `Cn1ccc(Cn2cc(-c3ccccc3)cn2)n1` [Example 85, 1-methyl-3-[(4-phenylpyrazol-1-yl)methyl]pyrazole], in assay [1], the inhibition at 1 µM was found to be 22.5% and the inhibition at 10 µM came to 25.3%.
For `Cc1ccc(-c2cnn(Cc3ccn(C)n3)c2)cc1F` [Example 53, 3-[[4-(3-fluoro-4-methyl-phenyl)pyrazol-1-yl]methyl]-1-methyl-pyrazole Succinate], the IC50 in assay [1] is 3840 nM.
On the same count and under the same terms, the figure for `Cc1cc(Cn2cc(-c3cc(F)cc(F)c3)cn2)n(C)n1` [Example 83, 5-[[4-(3,5-difluorophenyl)pyrazol-1-yl]methyl]-1,3-dimethyl-pyrazole] is 6020 nM.
On to `Cc1cc(Cn2cc(-c3ccccc3)cn2)n(C)n1` [Example 86, 1,3-Dimethyl-5-[(4-phenylpyrazol-1-yl)methyl]pyrazole], for which, in assay [1], the inhibition at 1 µM was 3.8% and the inhibition at 10 µM was found to be 10.9%.
As for `Cc1cc(Cn2cc(-c3ccccn3)cn2)n(C)n1` [Example 105, 2-(1-((1,3-dimethyl-1H-pyrazol-5-yl)methyl)-1H-pyrazol-4-yl)pyridine Succinate], in assay [1], the inhibition at 1 µM was -1.3% and the inhibition at 10 µM amounted to 4.4%.

These data come from US10155727B2, “Pyrazoles” (Janssen Pharmaceuticals, Inc., priority 2014, dated 2018).
